The nature of data set [1]: Two-component Cys-Lys stapling: Cys S-alkynylation by EBX-pentafluorophenyl ester reagents 9a-9d (1.1 equiv), then intramolecular Lys aminolysis of the PFP ester; DIPEA (2.5 equiv). The following applies: the molecule shown is the open-chain precursor, DMF, 1.0 mM, 37.0 °C, scale: % relative absorbance at 210 nm vs linear peptide standard.
The conditions of data set [2]: the molecule shown is the open-chain precursor, scale: % relative absorbance at 210 nm vs linear peptide standard.

These results are taken from PMC8048981, “Cys–Cys and Cys–Lys Stapling of Unprotected Peptides Enabled by Hypervalent Iodine Reagents” (Angewandte Chemie (International Ed. in English), 2021).

Like-named read-outs stand apart in the source and are kept apart here.

Regarding “Ac-QSQQTFC(S-C≡C-C6H4-2-CO-OPfp)NLWRLLKQN-NH2”, the ring closure, conversion by HPLC in data set [1] (34-membered ring, 0.5 h) came to 123.

As for “Ac-YGGEAARK(ivDde)AC(S-C≡C-C6H4-4-CO-OPfp)AREKAARE-NH2”, the ring closure, conversion by HPLC in data set [1] (27-membered ring, 0.5 h) came out at 117. On to “Ac-YGGEAAREAC(S-C≡C-Si(cHex)2-C≡C-I[bis-CF3 benziodoxole])ARECAARE-NH2”, for which, in data set [2] (22-membered ring), the ring closure, conversion by HPLC worked out at 69.

Turning to `C[C@H](NC(=O)[C@H](CC(=O)O)NC(=O)[C@H](Cc1c[nH]cn1)NC(=O)[C@H](CCCCN)NC(=O)[C@H](Cc1ccc(O)cc1)NC(=O)[C@H](Cc1ccccc1)NC(=O)[C@H](CCC(N)=O)NC(=O)[C@H](CO)NC(=O)[C@@H](N)CCCNC(=N)N)C(=O)NCC(=O)N[C@@H](CSC#Cc1ccc(C(=O)Oc2c(F)c(F)c(F)c(F)c2F)cc1)C(=O)NCC(N)=O` [H-RSQFYKHDAGC(S-C≡C-C6H4-4-CO-OPfp)G-NH2], the ring closure, conversion by HPLC in data set [1] (30-membered ring, 0.5 h) was 54; in data set [1] (41-membered ring, 0.5 h), 18. `CSCC[C@H](NC(=O)[C@H](CC(N)=O)NC(=O)[C@H](CCCCN)NC(=O)[C@H](Cc1ccc(O)cc1)NC(=O)[C@H](CS)NC(=O)[C@H](CCC(=O)O)NC(=O)[C@H](Cc1c[nH]cn1)NC(=O)[C@H](Cc1c[nH]c2ccccc12)NC(=O)[C@H](CSC#C[Si](O[Si](C#CI1OC(C(F)(F)F)(C(F)(F)F)c2ccccc21)(C(C)C)C(C)C)(C(C)C)C(C)C)NC(=O)[C@H](CCCNC(=N)N)NC(=O)[C@H](CCC(=O)O)NC(=O)[C@@H](N)CO)C(N)=O` had a ring closure, conversion by HPLC in data set [2] (24-membered ring, DMF, 1.0 mM, 37.0 °C, 4.0 h) of 15. For “Ac-YGGEAAREAC(S-C≡C-C6H4-2-CO-OPfp)AREKAARE-NH2”, in data set [1] (25-membered ring, 0.5 h), the ring closure, conversion by HPLC came to 118.

Turning to `CSCC[C@H](NC(=O)[C@H](CC(N)=O)NC(=O)[C@H](Cc1ccc(O)cc1)NC(=O)[C@H](CCCCN)NC(=O)[C@H](CCC(=O)O)NC(=O)[C@H](Cc1c[nH]cn1)NC(=O)[C@H](Cc1c[nH]c2ccccc12)NC(=O)[C@H](CSC#Cc1ccc(C(=O)Oc2c(F)c(F)c(F)c(F)c2F)cc1)NC(=O)[C@H](CCCNC(=N)N)NC(=O)[C@H](CCC(=O)O)NC(=O)[C@@H](N)CO)C(N)=O` [H-SERC(S-C≡C-C6H4-4-CO-OPfp)WHEKYNM-NH2], in data set [1] (27-membered ring, 0.5 h), the ring closure, conversion by HPLC amounted to 63. On the same count and under the same terms, for “Ac-YGGEKAREAC(S-C≡C-C6H4-4-CO-OPfp)AREKAARE-NH2” the value was 91. As to `CSCC[C@H](NC(=O)[C@H](CC(N)=O)NC(=O)[C@H](Cc1ccc(O)cc1)NC(=O)[C@H](CCCCN)NC(=O)[C@H](CCC(=O)O)NC(=O)[C@H](Cc1c[nH]cn1)NC(=O)[C@H](Cc1c[nH]c2ccccc12)NC(=O)[C@H](CSC#Cc1cccc(C(=O)Oc2c(F)c(F)c(F)c(F)c2F)c1)NC(=O)[C@H](CCCNC(=N)N)NC(=O)[C@H](CCC(=O)O)NC(=O)[C@@H](N)CO)C(N)=O` [H-SERC(S-C≡C-C6H4-3-CO-OPfp)WHEKYNM-NH2], the ring closure, conversion by HPLC in data set [1] (26-membered ring, 0.5 h) came to 20.

On to “Ac-YGGEAARK(ivDde)AC(S-C≡C-C6H4-3-CO-OPfp)AREKAARE-NH2”, for which the ring closure, conversion by HPLC in data set [1] (26-membered ring, 0.5 h) was determined as 72. “Ac-ENPEC(S-C≡C-C6H4-2-CO-OPfp)ILDKHVQRVM-NH2”: the ring closure, conversion by HPLC in data set [1] (25-membered ring, 0.5 h) amounted to 101. “Ac-YGGEAAREAC(S-C≡C-C6H3-3,5-(CO-OPfp)2)AREKAARE-NH2”: in data set [1] (26-membered ring, 0.25 h), the ring closure, conversion by HPLC turned out to be 70. “Ac-YGGEAARKAC(S-C≡C-C6H4-4-CO-OPfp)AREKAARE-NH2”: in data set [1] (27-membered ring, 0.5 h), the ring closure, conversion by HPLC was 92.

With “Ac-YGGEAARKAC(S-C≡C-C6H4-3-CO-OPfp)AREKAARE-NH2”, the ring closure, conversion by HPLC in data set [1] (26-membered ring, 0.5 h) is 74.

As for `C[C@H](NC(=O)[C@H](CC(=O)O)NC(=O)[C@H](Cc1c[nH]cn1)NC(=O)[C@H](CCCCN)NC(=O)[C@H](Cc1ccc(O)cc1)NC(=O)[C@H](Cc1ccccc1)NC(=O)[C@H](CCC(N)=O)NC(=O)[C@H](CO)NC(=O)[C@@H](N)CCCNC(=N)N)C(=O)NCC(=O)N[C@@H](CSC#Cc1cccc(C(=O)Oc2c(F)c(F)c(F)c(F)c2F)c1)C(=O)NCC(N)=O` [H-RSQFYKHDAGC(S-C≡C-C6H4-3-CO-OPfp)G-NH2], the ring closure, conversion by HPLC in data set [1] (29-membered ring, 0.5 h) stood at 22. With “Ac-YGGEAAREAC(S-C≡C-C6H4-4-CO-OPfp)AREKAAREK-NH2”, in data set [1] (27-membered ring, 0.5 h), the ring closure, conversion by HPLC worked out at 95.
